From ChEMBL document CHEMBL1201862, “PubChem BioAssay data set” (2004)
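The compound was tested at five concentrations on cells cultured in 96-well plates, with a 48-hour exposure period. GI50 is the concentration that inhibits growth by half.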 Activity calls are given as the source filed them. Rule as the data show it: active = GI50 up to about 1.1 µM and inactive = higher.

What was measured:
Assay in all cases: inhibition of tumour cell growth, NCI panel, 48 h
786-0 = tested on: 786-0
CCRF-CEM = tested on: CCRF-CEM
HOP-62 = tested on: HOP-62
KM12 = tested on: KM12
MDA-MB-435 = tested on: MDA-MB-435
MDA-N = tested on: MDA-N
Malme-3M = tested on: Malme-3M
NCI-H23 = tested on: NCI-H23
NCI-H522 = tested on: NCI-H522
NCI/ADR-RES = tested on: NCI/ADR-RES
RPMI-8226 = tested on: RPMI-8226
SF-539 = tested on: SF-539
SK-MEL-2 = tested on: SK-MEL-2
SK-OV-3 = tested on: SK-OV-3
SW-620 = tested on: SW-620
T47D = tested on: T47D
U-251 = tested on: U-251
UACC-257 = tested on: UACC-257
UO-31 = tested on: UO-31

Compound | GI50 (786-0) | GI50 (CCRF-CEM) | GI50 (HOP-62) | GI50 (KM12) | GI50 (MDA-MB-435) | GI50 (MDA-N) | GI50 (Malme-3M) | GI50 (NCI-H23) | GI50 (NCI-H522) | GI50 (NCI/ADR-RES) | GI50 (RPMI-8226) | GI50 (SF-539) | GI50 (SK-MEL-2) | GI50 (SK-OV-3) | GI50 (SW-620) | GI50 (T47D) | GI50 (U-251) | GI50 (UACC-257) | GI50 (UO-31)
CCOC(=O)/C=C\c1c(Cl)n(-c2ccccc2)c(=O)n(-c2ccccc2)c1=O | 20.3 µM (inactive) | 21.9 µM (inactive) | 20.8 µM (inactive) | 19.1 µM (inactive) | 22.1 µM (inactive) | 17 µM (inactive) | 24.5 µM (inactive) | 21.7 µM (inactive) | 18.1 µM (inactive) | 26.5 µM (inactive) | > 10 µM (inactive) | 17.2 µM (inactive) | 17.7 µM (inactive) | 22.2 µM (inactive) | 23.8 µM (inactive) | 20.2 µM (inactive) | 32 µM (inactive) | 18.6 µM (inactive) | 18.8 µM (inactive)
O=C1CC=C2C3CC4N(CCC45c4ccccc4N1C25)C/C3=C\CO (centres undefined) | > 100 µM (inactive) | > 100 µM (inactive) | – | > 100 µM (inactive) | > 100 µM (inactive) | > 100 µM (inactive) | > 100 µM (inactive) | > 100 µM (inactive) | > 100 µM (inactive) | > 100 µM (inactive) | > 100 µM (inactive) | > 100 µM (inactive) | > 100 µM (inactive) | > 100 µM (inactive) | > 100 µM (inactive) | > 100 µM (inactive) | > 100 µM (inactive) | > 100 µM (inactive) | > 100 µM (inactive)
Oc1ccc(Cl)cc1Sc1cc(Cl)ccc1O [FENTICLOR] | 18.1 µM (inactive) | 5.92 µM (inactive) | 16.7 µM (inactive) | 17.5 µM (inactive) | 10.9 µM (inactive) | 7.24 µM (inactive) | 6.67 µM (inactive) | 5.04 µM (inactive) | 3.1 µM (inactive) | 12.5 µM (inactive) | 3.32 µM (inactive) | 17.7 µM (inactive) | 10.5 µM (inactive) | 20.5 µM (inactive) | 16.7 µM (inactive) | 5.85 µM (inactive) | 8.53 µM (inactive) | 6.65 µM (inactive) | 6.78 µM (inactive)
CN(C)CCCNc1c2c(=O)n(C)c(=O)nc-2n(C)c2ccccc12 | 5.68 µM (inactive) | 3.4 µM (inactive) | 3.75 µM (inactive) | 3.58 µM (inactive) | 3.94 µM (inactive) | 4.2 µM (inactive) | 3.11 µM (inactive) | 7.41 µM (inactive) | 2.45 µM (inactive) | 67 µM (inactive) | 7.1 µM (inactive) | 6.73 µM (inactive) | 2.52 µM (inactive) | 6.24 µM (inactive) | 3.7 µM (inactive) | 5.12 µM (inactive) | 3.26 µM (inactive) | 4.86 µM (inactive) | 4.51 µM (inactive)
O=C1c2ccccc2-n2c1nc1ccccc1c2=O [TRYPTANTHRIN] | 28.2 µM (inactive) | 9.08 µM (inactive) | 12.1 µM (inactive) | 6.62 µM (inactive) | 1.85 µM (inactive) | 18.2 µM (inactive) | 13.4 µM (inactive) | 9.73 µM (inactive) | 15.3 µM (inactive) | 22.3 µM (inactive) | 1.04 µM (active) | 20.7 µM (inactive) | 10.1 µM (inactive) | > 100 µM (inactive) | 20.8 µM (inactive) | 8.87 µM (inactive) | 3.34 µM (inactive) | 3.02 µM (inactive) | 5.06 µM (inactive)
